PMC3130732, “E. coli Histidine Triad Nucleotide Binding Protein 1 (ecHinT) Is a Catalytic Regulator of D-Alanine Dehydrogenase (DadA) Activity In Vivo” (PLoS ONE, 2011)
pKi: −log10 of the molar value.

Molecular target: T1, E. coli Histidine Triad Nucleotide Binding Protein 1 (ecHinT) (Escherichia coli, UniProt P0ACE7)
T1 construct: gene hinT
Experiment: spectrophotometric phosphoramidase assay
Assay type: biochemical

T1 sequence (P0ACE7 whole entry): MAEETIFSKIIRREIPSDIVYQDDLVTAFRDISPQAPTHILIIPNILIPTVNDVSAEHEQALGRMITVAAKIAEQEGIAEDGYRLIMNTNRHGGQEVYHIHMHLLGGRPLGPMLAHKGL

`Nc1nc2c(ncn2[C@@H]2O[C@H](COC(=O)NCCc3c[nH]c4ccccc34)[C@@H](O)[C@H]2O)c(=O)[nH]1` [TpGc, 5′-O-[(3-indolyl)-1-ethyl]carbamoyl guanosine] showed a pKi of 4.38.
